{
  "source": "BigSolDB 2.1",
  "data": [
    {"smiles": "N#CC(c1ccc(Cl)cc1)c1c(Cl)cc(-n2ncc(=O)[nH]c2=O)cc1Cl", "note": "(stereo not given)", "values": [
      {"measurement": "solubility (mole fraction)", "setting": "in DMF, 283.15 K", "value": 0.0254},
      {"measurement": "solubility (mole fraction)", "setting": "in DMF, 288.15 K", "value": 0.028},
      {"measurement": "solubility (mole fraction)", "setting": "in DMF, 293.15 K", "value": 0.0309},
      {"measurement": "solubility (mole fraction)", "setting": "in DMF, 298.15 K", "value": 0.0339},
      {"measurement": "solubility (mole fraction)", "setting": "in DMF, 303.15 K", "value": 0.0372},
      {"measurement": "solubility (mole fraction)", "setting": "in DMF, 308.15 K", "value": 0.0407},
      {"measurement": "solubility (mole fraction)", "setting": "in DMF, 313.15 K", "value": 0.0444},
      {"measurement": "solubility (mole fraction)", "setting": "in DMF, 318.15 K", "value": 0.0484},
      {"measurement": "solubility (mole fraction)", "setting": "in DMF, 323.15 K", "value": 0.0527},
      {"measurement": "solubility (mole fraction)", "setting": "in acetone, 283.15 K", "value": 0.012},
      {"measurement": "solubility (mole fraction)", "setting": "in acetone, 288.15 K", "value": 0.014},
      {"measurement": "solubility (mole fraction)", "setting": "in acetone, 293.15 K", "value": 0.0162},
      {"measurement": "solubility (mole fraction)", "setting": "in acetone, 298.15 K", "value": 0.0186},
      {"measurement": "solubility (mole fraction)", "setting": "in acetone, 303.15 K", "value": 0.0215},
      {"measurement": "solubility (mole fraction)", "setting": "in acetone, 308.15 K", "value": 0.0247},
      {"measurement": "solubility (mole fraction)", "setting": "in acetone, 313.15 K", "value": 0.0281},
      {"measurement": "solubility (mole fraction)", "setting": "in acetone, 318.15 K", "value": 0.032},
      {"measurement": "solubility (mole fraction)", "setting": "in acetone, 323.15 K", "value": 0.0361},
      {"measurement": "solubility (mole fraction)", "setting": "in acetonitrile, 283.15 K", "value": 0.00825},
      {"measurement": "solubility (mole fraction)", "setting": "in acetonitrile, 288.15 K", "value": 0.00972},
      {"measurement": "solubility (mole fraction)", "setting": "in acetonitrile, 293.15 K", "value": 0.0115},
      {"measurement": "solubility (mole fraction)", "setting": "in acetonitrile, 298.15 K", "value": 0.0135},
      {"measurement": "solubility (mole fraction)", "setting": "in acetonitrile, 303.15 K", "value": 0.0157},
      {"measurement": "solubility (mole fraction)", "setting": "in acetonitrile, 308.15 K", "value": 0.0183},
      {"measurement": "solubility (mole fraction)", "setting": "in acetonitrile, 313.15 K", "value": 0.0211},
      {"measurement": "solubility (mole fraction)", "setting": "in acetonitrile, 318.15 K", "value": 0.0244},
      {"measurement": "solubility (mole fraction)", "setting": "in acetonitrile, 323.15 K", "value": 0.0279},
      {"measurement": "solubility (mole fraction)", "setting": "in ethanol, 283.15 K", "value": 0.00168},
      {"measurement": "solubility (mole fraction)", "setting": "in ethanol, 288.15 K", "value": 0.00204},
      {"measurement": "solubility (mole fraction)", "setting": "in ethanol, 293.15 K", "value": 0.00245},
      {"measurement": "solubility (mole fraction)", "setting": "in ethanol, 298.15 K", "value": 0.00293},
      {"measurement": "solubility (mole fraction)", "setting": "in ethanol, 303.15 K", "value": 0.00347},
      {"measurement": "solubility (mole fraction)", "setting": "in ethanol, 308.15 K", "value": 0.00407},
      {"measurement": "solubility (mole fraction)", "setting": "in ethanol, 313.15 K", "value": 0.00476},
      {"measurement": "solubility (mole fraction)", "setting": "in ethanol, 318.15 K", "value": 0.00555},
      {"measurement": "solubility (mole fraction)", "setting": "in ethanol, 323.15 K", "value": 0.00641},
      {"measurement": "solubility (mole fraction)", "setting": "in ethyl acetate, 283.15 K", "value": 0.0052},
      {"measurement": "solubility (mole fraction)", "setting": "in ethyl acetate, 288.15 K", "value": 0.00634},
      {"measurement": "solubility (mole fraction)", "setting": "in ethyl acetate, 293.15 K", "value": 0.0077},
      {"measurement": "solubility (mole fraction)", "setting": "in ethyl acetate, 298.15 K", "value": 0.00924},
      {"measurement": "solubility (mole fraction)", "setting": "in ethyl acetate, 303.15 K", "value": 0.0111},
      {"measurement": "solubility (mole fraction)", "setting": "in ethyl acetate, 308.15 K", "value": 0.0132},
      {"measurement": "solubility (mole fraction)", "setting": "in ethyl acetate, 313.15 K", "value": 0.0157},
      {"measurement": "solubility (mole fraction)", "setting": "in ethyl acetate, 318.15 K", "value": 0.0185},
      {"measurement": "solubility (mole fraction)", "setting": "in ethyl acetate, 323.15 K", "value": 0.0217},
      {"measurement": "solubility (mole fraction)", "setting": "in isopropanol, 283.15 K", "value": 0.000798},
      {"measurement": "solubility (mole fraction)", "setting": "in isopropanol, 288.15 K", "value": 0.00102},
      {"measurement": "solubility (mole fraction)", "setting": "in isopropanol, 293.15 K", "value": 0.00129},
      {"measurement": "solubility (mole fraction)", "setting": "in isopropanol, 298.15 K", "value": 0.00163},
      {"measurement": "solubility (mole fraction)", "setting": "in isopropanol, 303.15 K", "value": 0.00204},
      {"measurement": "solubility (mole fraction)", "setting": "in isopropanol, 308.15 K", "value": 0.00251},
      {"measurement": "solubility (mole fraction)", "setting": "in isopropanol, 313.15 K", "value": 0.00308},
      {"measurement": "solubility (mole fraction)", "setting": "in isopropanol, 318.15 K", "value": 0.00374},
      {"measurement": "solubility (mole fraction)", "setting": "in isopropanol, 323.15 K", "value": 0.00455},
      {"measurement": "solubility (mole fraction)", "setting": "in methanol, 283.15 K", "value": 0.00233},
      {"measurement": "solubility (mole fraction)", "setting": "in methanol, 288.15 K", "value": 0.0027},
      {"measurement": "solubility (mole fraction)", "setting": "in methanol, 293.15 K", "value": 0.00316},
      {"measurement": "solubility (mole fraction)", "setting": "in methanol, 298.15 K", "value": 0.00369},
      {"measurement": "solubility (mole fraction)", "setting": "in methanol, 303.15 K", "value": 0.00426},
      {"measurement": "solubility (mole fraction)", "setting": "in methanol, 308.15 K", "value": 0.00494},
      {"measurement": "solubility (mole fraction)", "setting": "in methanol, 313.15 K", "value": 0.00566},
      {"measurement": "solubility (mole fraction)", "setting": "in methanol, 318.15 K", "value": 0.00646},
      {"measurement": "solubility (mole fraction)", "setting": "in methanol, 323.15 K", "value": 0.00737},
      {"measurement": "solubility (mole fraction)", "setting": "in n-butanol, 283.15 K", "value": 0.000481},
      {"measurement": "solubility (mole fraction)", "setting": "in n-butanol, 288.15 K", "value": 0.000639},
      {"measurement": "solubility (mole fraction)", "setting": "in n-butanol, 293.15 K", "value": 0.000851},
      {"measurement": "solubility (mole fraction)", "setting": "in n-butanol, 298.15 K", "value": 0.0011},
      {"measurement": "solubility (mole fraction)", "setting": "in n-butanol, 303.15 K", "value": 0.00142},
      {"measurement": "solubility (mole fraction)", "setting": "in n-butanol, 308.15 K", "value": 0.00181},
      {"measurement": "solubility (mole fraction)", "setting": "in n-butanol, 313.15 K", "value": 0.00229},
      {"measurement": "solubility (mole fraction)", "setting": "in n-butanol, 318.15 K", "value": 0.00288},
      {"measurement": "solubility (mole fraction)", "setting": "in n-butanol, 323.15 K", "value": 0.0036},
      {"measurement": "solubility (mole fraction)", "setting": "in n-propanol, 283.15 K", "value": 0.00118},
      {"measurement": "solubility (mole fraction)", "setting": "in n-propanol, 288.15 K", "value": 0.00146},
      {"measurement": "solubility (mole fraction)", "setting": "in n-propanol, 293.15 K", "value": 0.00179},
      {"measurement": "solubility (mole fraction)", "setting": "in n-propanol, 298.15 K", "value": 0.00221},
      {"measurement": "solubility (mole fraction)", "setting": "in n-propanol, 303.15 K", "value": 0.00268},
      {"measurement": "solubility (mole fraction)", "setting": "in n-propanol, 308.15 K", "value": 0.00321},
      {"measurement": "solubility (mole fraction)", "setting": "in n-propanol, 313.15 K", "value": 0.00383},
      {"measurement": "solubility (mole fraction)", "setting": "in n-propanol, 318.15 K", "value": 0.0046},
      {"measurement": "solubility (mole fraction)", "setting": "in n-propanol, 323.15 K", "value": 0.00543},
      {"measurement": "solubility (mole fraction)", "setting": "in toluene, 283.15 K", "value": 0.000263},
      {"measurement": "solubility (mole fraction)", "setting": "in toluene, 288.15 K", "value": 0.000371},
      {"measurement": "solubility (mole fraction)", "setting": "in toluene, 293.15 K", "value": 0.00052},
      {"measurement": "solubility (mole fraction)", "setting": "in toluene, 298.15 K", "value": 0.000692},
      {"measurement": "solubility (mole fraction)", "setting": "in toluene, 303.15 K", "value": 0.000923},
      {"measurement": "solubility (mole fraction)", "setting": "in toluene, 308.15 K", "value": 0.00123},
      {"measurement": "solubility (mole fraction)", "setting": "in toluene, 313.15 K", "value": 0.00162},
      {"measurement": "solubility (mole fraction)", "setting": "in toluene, 318.15 K", "value": 0.00211},
      {"measurement": "solubility (mole fraction)", "setting": "in toluene, 323.15 K", "value": 0.0027}
    ]}
  ]
}
